# Values joined by “and” are separate entries in the source; they are usually repeats but may differ in a detail not shown here. Equal entries are not always repeated. Where two headings read alike, the source gives them in different places.
# Key:
# Assay in all cases: cell-based
# human KOR (Gz) [1] = target: T1, human KOR (Gz) (Homo sapiens, UniProt P41145, Q115N)
# T1 construct: expressed in transfected cells; host or cells: HEK293T
# human KOR (Gz) [2] = target: T2, human KOR (Gz) (Homo sapiens, UniProt P41145, R274A)
# T2 construct: expressed in transfected cells; host or cells: HEK293T
# human KOR (Gz) [3] = target: T3, human KOR (Gz) (Homo sapiens, UniProt P41145, G319L)
# T3 construct: expressed in transfected cells; host or cells: HEK293T
# human KOR (Gz) [4] = target: T4, human KOR (Gz) (Homo sapiens, UniProt P41145, L253A); conditions: HEK-293T
# T4 construct: expressed in transfected cells; host or cells: HEK293T
# human KOR (Gz) [5] = target: T5, human KOR (Gz) (Homo sapiens, UniProt P41145, D155A); conditions: HEK-293T
# T5 construct: expressed in transfected cells; host or cells: HEK293T
# human KOR (Gz) [6] = target: T6, human KOR (Gz) (Homo sapiens, UniProt P41145, N322A)
# T6 construct: expressed in transfected cells; host or cells: HEK293T
# human KOR (Gz) [7] = target: T7, human KOR (Gz) (Homo sapiens, UniProt P41145, T94V)
# T7 construct: expressed in transfected cells; host or cells: HEK293T
# human KOR (Gz) [8] = target: T8, human KOR (Gz) (Homo sapiens, UniProt P41145, D334A)
# T8 construct: expressed in transfected cells; host or cells: HEK293T
# human KOR (Gz) [9] = target: T9, human KOR (Gz) (Homo sapiens, UniProt P41145)
# T9 construct: expressed in transfected cells; host or cells: HEK293T
# human KOR (Gz) [10] = target: T10, human KOR (Gz) (Homo sapiens, UniProt P41145, R271A)
# T10 construct: expressed in transfected cells; host or cells: HEK293T
# human KOR (Gz) [11] = target: T11, human KOR (Gz) (Homo sapiens, UniProt P41145, R170A)
# T11 construct: expressed in transfected cells; host or cells: HEK293T
# human KOR (Gz) [12] = target: T12, human KOR (Gz) (Homo sapiens, UniProt P41145, Y139L)
# T12 construct: expressed in transfected cells; host or cells: HEK293T
# human KOR (Gz) [13] = target: T13, human KOR (Gz) (Homo sapiens, UniProt P41145, E297A)
# T13 construct: expressed in transfected cells; host or cells: HEK293T
# human KOR (Gz) [14] = target: T14, human KOR (Gz) (Homo sapiens, UniProt P41145, D266A)
# T14 construct: expressed in transfected cells; host or cells: HEK293T
# human KOR (Gz) [15] = target: T15, human KOR (Gz) (Homo sapiens, UniProt P41145, N326A)
# T15 construct: expressed in transfected cells; host or cells: HEK293T
# human KOR (Gz) [16] = target: T16, human KOR (Gz) (Homo sapiens, UniProt P41145, N141A)
# T16 construct: expressed in transfected cells; host or cells: HEK293T
# human KOR (Gz) [17] = target: T17, human KOR (Gz) (Homo sapiens, UniProt P41145, K227A)
# T17 construct: expressed in transfected cells; host or cells: HEK293T
# human KOR (Gz) [18] = target: T18, human KOR (Gz) (Homo sapiens, UniProt P41145, F114L)
# T18 construct: expressed in transfected cells; host or cells: HEK293T
# human KOR (Gz) [19] = target: T19, human KOR (Gz) (Homo sapiens, UniProt P41145, D105A)
# T19 construct: expressed in transfected cells; host or cells: HEK293T
# KOR Q115N = KOR Q115N (Homo sapiens, UniProt P41145, Q115N); parameters: expressed in transfected cells; host or cells: HEK 293T (ATCC, CRL-3216); conditions: read-out: cAMP response (Figure S4C), KOR Q115N, Log [Drug], replicate values
# human KOR (β-arrestin 1) [20] = target: T20, human KOR (β-arrestin 1) (Homo sapiens, UniProt P41145, N141A); conditions: HEK-293T
# T20 construct: expressed in transfected cells; host or cells: HEK293T
# human KOR (β-arrestin 1) [21] = target: T21, human KOR (β-arrestin 1) (Homo sapiens, UniProt P41145, R257A); conditions: HEK-293T
# T21 construct: expressed in transfected cells; host or cells: HEK293T
# human KOR (β-arrestin 1) [22] = target: T22, human KOR (β-arrestin 1) (Homo sapiens, UniProt P41145, L253A); conditions: HEK-293T
# T22 construct: expressed in transfected cells; host or cells: HEK293T
# human KOR (β-arrestin 1) [23] = target: T23, human KOR (β-arrestin 1) (Homo sapiens, UniProt P41145, Y320L); conditions: HEK-293T
# T23 construct: expressed in transfected cells; host or cells: HEK293T
# human KOR (β-arrestin 1) [24] = target: T24, human KOR (β-arrestin 1) (Homo sapiens, UniProt P41145, K200A); conditions: HEK-293T
# T24 construct: expressed in transfected cells; host or cells: HEK293T
# human KOR (β-arrestin 1) [25] = target: T25, human KOR (β-arrestin 1) (Homo sapiens, UniProt P41145, F114L); conditions: HEK-293T
# T25 construct: expressed in transfected cells; host or cells: HEK293T
# human KOR (β-arrestin 1) [26] = target: T26, human KOR (β-arrestin 1) (Homo sapiens, UniProt P41145, F283A); conditions: HEK-293T
# T26 construct: expressed in transfected cells; host or cells: HEK293T
# human KOR (β-arrestin 1) [27] = target: T27, human KOR (β-arrestin 1) (Homo sapiens, UniProt P41145)
# T27 construct: expressed in transfected cells; host or cells: HEK293T
# human KOR (β-arrestin 1) [28] = target: T28, human KOR (β-arrestin 1) (Homo sapiens, UniProt P41145, E297A); conditions: HEK-293T
# T28 construct: expressed in transfected cells; host or cells: HEK293T
# human KOR (β-arrestin 1) [29] = target: T29, human KOR (β-arrestin 1) (Homo sapiens, UniProt P41145, N322A); conditions: HEK-293T
# T29 construct: expressed in transfected cells; host or cells: HEK293T
# [30] = HEK-293T, read-out: Gz (Figure 5A concentration-response, replicate values)
# [31] = HEK-293T, read-out: βArrestin1 (Figure 5A concentration-response, replicate values)
# T27 sequence (P41145 whole entry): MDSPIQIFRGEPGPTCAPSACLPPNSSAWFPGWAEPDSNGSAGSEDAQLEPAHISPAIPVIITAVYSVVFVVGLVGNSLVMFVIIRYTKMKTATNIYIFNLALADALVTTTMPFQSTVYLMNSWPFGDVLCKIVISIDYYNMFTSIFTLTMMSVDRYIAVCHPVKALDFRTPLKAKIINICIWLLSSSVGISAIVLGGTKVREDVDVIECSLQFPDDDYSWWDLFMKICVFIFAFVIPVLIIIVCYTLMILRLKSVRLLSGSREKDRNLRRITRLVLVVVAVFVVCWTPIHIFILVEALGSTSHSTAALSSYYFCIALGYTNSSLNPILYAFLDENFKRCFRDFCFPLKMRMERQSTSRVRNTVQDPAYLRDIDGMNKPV
# T9 sequence (P41145 whole entry): as above
# KOR Q115N, sequence (P41145 whole entry Q115N): as the sequence (P41145 whole entry) above, with Q115N counted along it
# T11 sequence (P41145 whole entry R170A): as the sequence (P41145 whole entry) above, with R170A counted along it
# T14 sequence (P41145 whole entry D266A): as the sequence (P41145 whole entry) above, with D266A counted along it
# T16 sequence (P41145 whole entry N141A): as the sequence (P41145 whole entry) above, with N141A counted along it
# T10 sequence (P41145 whole entry R271A): as the sequence (P41145 whole entry) above, with R271A counted along it
# T6 sequence (P41145 whole entry N322A): as the sequence (P41145 whole entry) above, with N322A counted along it
# T8 sequence (P41145 whole entry D334A): as the sequence (P41145 whole entry) above, with D334A counted along it
# T2 sequence (P41145 whole entry R274A): as the sequence (P41145 whole entry) above, with R274A counted along it
# T13 sequence (P41145 whole entry E297A): as the sequence (P41145 whole entry) above, with E297A counted along it
# T12 sequence (P41145 whole entry Y139L): as the sequence (P41145 whole entry) above, with Y139L counted along it
# T1 sequence (P41145 whole entry Q115N): as the sequence (P41145 whole entry) above, with Q115N counted along it
# T19 sequence (P41145 whole entry D105A): as the sequence (P41145 whole entry) above, with D105A counted along it
# T18 sequence (P41145 whole entry F114L): as the sequence (P41145 whole entry) above, with F114L counted along it
# T15 sequence (P41145 whole entry N326A): as the sequence (P41145 whole entry) above, with N326A counted along it
# T7 sequence (P41145 whole entry T94V): as the sequence (P41145 whole entry) above, with T94V counted along it
# T20 sequence (P41145 whole entry N141A): as the sequence (P41145 whole entry) above, with N141A counted along it
# T29 sequence (P41145 whole entry N322A): as the sequence (P41145 whole entry) above, with N322A counted along it
# T24 sequence (P41145 whole entry K200A): as the sequence (P41145 whole entry) above, with K200A counted along it
# T4 sequence (P41145 whole entry L253A): as the sequence (P41145 whole entry) above, with L253A counted along it
# T22 sequence (P41145 whole entry L253A): as the sequence (P41145 whole entry) above, with L253A counted along it
# T28 sequence (P41145 whole entry E297A): as the sequence (P41145 whole entry) above, with E297A counted along it
# T23 sequence (P41145 whole entry Y320L): as the sequence (P41145 whole entry) above, with Y320L counted along it
# T5 sequence (P41145 whole entry D155A): as the sequence (P41145 whole entry) above, with D155A counted along it
# T17 sequence (P41145 whole entry K227A): as the sequence (P41145 whole entry) above, with K227A counted along it
# T26 sequence (P41145 whole entry F283A): as the sequence (P41145 whole entry) above, with F283A counted along it
# T3 sequence (P41145 whole entry G319L): as the sequence (P41145 whole entry) above, with G319L counted along it
# T25 sequence (P41145 whole entry F114L): as the sequence (P41145 whole entry) above, with F114L counted along it
# T21 sequence (P41145 whole entry R257A): as the sequence (P41145 whole entry) above, with R257A counted along it
smiles,measurement,setting,value
"CN(C(=O)/C=C/c1ccoc1)[C@@H]1CC[C@@]2(O)[C@H]3Cc4ccc(O)c5c4[C@@]2(CCN3CC2CC2)[C@H]1O5 [Nalfurafine, nalfurafine]",FC vs wild type,human KOR (Gz) [1],39
same,Emax,human KOR (Gz) [1]; HEK-293T,78.7%
same,FC vs wild type,human KOR (Gz) [2],977
same,Emax,human KOR (Gz) [2]; HEK-293T,99.1%
same,FC vs wild type,human KOR (Gz) [3],162
same,Emax,human KOR (Gz) [4],112%
same,Emax,human KOR (Gz) [5],92.7%
same,FC vs wild type,human KOR (Gz) [6],1259
same,Emax,human KOR (Gz) [6]; HEK-293T,81.8%
same,FC vs wild type,human KOR (Gz) [7],6
same,FC vs wild type,human KOR (Gz) [8],112
same,Emax,human KOR (Gz) [8]; HEK-293T,99.2%
same,Emax%,human KOR (Gz) [9],96.48%
same,FC vs wild type,human KOR (Gz) [9],1
same,Emax,human KOR (Gz) [9]; HEK-293T,96.7%
same,activation at 10 pM,human KOR (Gz) [9]; [30],45.5%
same,activation at 0.1 µM,human KOR (Gz) [9]; [30],99.7%
same,activation at 1 µM,human KOR (Gz) [9]; [30],111%
same,activation at 10 µM,human KOR (Gz) [9]; [30],97.8%
same,FC vs wild type,human KOR (Gz) [10],398
same,Emax,human KOR (Gz) [10]; HEK-293T,110%
same,FC vs wild type,human KOR (Gz) [11],13 and ~10
same,Emax,human KOR (Gz) [11]; HEK-293T,96%
same,FC vs wild type,human KOR (Gz) [12],4
same,Emax,human KOR (Gz) [12]; HEK-293T,103%
same,FC vs wild type,human KOR (Gz) [13],1
same,Emax,human KOR (Gz) [13]; HEK-293T,103%
same,FC vs wild type,human KOR (Gz) [14],1259
same,Emax,human KOR (Gz) [14]; HEK-293T,112%
same,FC vs wild type,human KOR (Gz) [15],69
same,Emax,human KOR (Gz) [15]; HEK-293T,96.9%
same,FC vs wild type,human KOR (Gz) [16],93
same,Emax,human KOR (Gz) [16]; HEK-293T,98.3%
same,FC vs wild type,human KOR (Gz) [17],3
same,FC vs wild type,human KOR (Gz) [18],54
same,Emax,human KOR (Gz) [18]; HEK-293T,85.6%
same,FC vs wild type,human KOR (Gz) [19],479
same,Emax,human KOR (Gz) [19]; HEK-293T,103%
same,activation at 1 µM,KOR Q115N; M -6,99.3%
same,activation at […],KOR Q115N; M -6.5,94.1%
same,activation at 0.1 µM,KOR Q115N; M -7,101%
same,activation at […],KOR Q115N; M -7.5,96.7%
same,activation at 0.01 µM,KOR Q115N; M -8,100%
same,activation at […],KOR Q115N; M -8.5,91.3%
same,activation at 0.001 µM,KOR Q115N; M -9,89.3%
same,activation at […],KOR Q115N; M -9.5,82.2%
same,activation at 0.0001 µM,KOR Q115N; M -10,67.6%
same,activation at 10 pM,KOR Q115N; M -11,7.51%
same,Emax,human KOR (β-arrestin 1) [20],91.3%
same,Emax,human KOR (β-arrestin 1) [21],103%
same,Emax,human KOR (β-arrestin 1) [22],94.5%
same,Emax,human KOR (β-arrestin 1) [23],83.6%
same,Emax,human KOR (β-arrestin 1) [24],81.3%
same,Emax,human KOR (β-arrestin 1) [25],33.9%
same,Emax,human KOR (β-arrestin 1) [26],100%
same,Emax%,human KOR (β-arrestin 1) [27],52.03% and 50%
same,Emax,human KOR (β-arrestin 1) [27]; HEK-293T,52.1%
same,activation at 0.01 µM,human KOR (β-arrestin 1) [27]; [31],47.1%
same,activation at 0.1 µM,human KOR (β-arrestin 1) [27]; [31],49.9%
same,activation at 1 µM,human KOR (β-arrestin 1) [27]; [31],52.7%
same,Emax,human KOR (β-arrestin 1) [28],101%
same,Emax,human KOR (β-arrestin 1) [29],101%
